From patent publication US20130289070A1, “Use of Levocabastine for Modulating Generation of Pro-Inflammatory Cytokines” (Bausch & Lomb Incorporated, priority 2007, published 2013)

Test system: EoL-1 (human eosinophilic leukaemia cell line) cells
Test: TNF-α-induced cytokine release, EoL-1 cells differentiated with PMA (Luminex)
Format: cell-based
Set-up: key to IL-1α (PMA), p of decrement / IL-1β (PMA), p of decrement / IL-1ra (PMA), p of decrement / IL-5 (PMA), p of decrement / IL-7 (PMA), p of decrement / IL-8 (PMA), p of decrement / IP-10 (PMA), p of decrement / MCP-1 (PMA), p of decrement / MIP-1β (PMA), p of decrement / RANTES (PMA), p of decrement / VEGF (PMA), p of decrement / Fractalkine (PMA), p of decrement / MIP-1α (PMA), p of decrement: ns = non significant
Description: EoL-1 (human eosinophilic leukaemia cell line) cells (Saito et al., 1985; Mayumi, 1992) were maintained in RPMI-1640 medium with L-glutamine supplemented with 10% (v/v) FBS at 37° C. in a humidified atmosphere with 5% CO2. Where indicated, 24 h before the experiment 25 ng/mL PMA ((phorbol 12-myristate 13-acetate, purchased from Sigma Aldrich) was added to the medium to induce eosinophil granulation and differentiation (Ohtsu et al., 1993; Zimmermann et al., 2000).
Half-million cells were aliquoted per point in a 24 well plate; each experiment was performed in triplicate and carried out in parallel with eosinophils differentiated and non differentiated with PMA (25 ng/mL, 24 h). Cells were suspended in low serum medium (RPMI-1640, 0.1% (v/v) FBS). TNF-α was used to induce cytokine secretion as previously described by Steube et al. (2000), and the net release was obtained by comparison to the basal (non-TNF-α treated). In the first experiment we evaluated the concentration and time relation between TNF-α stimulation and cytokine release. Therefore, 5, 10, and 25 ng/mL of TNF-α was administered to the cells at 0, ½, 1, 2, 3, 6, 12 and 24 h (data not shown). An aliquot of 150 μL of supernate was collected for cytokines' analysis. […] Differentiated and non-differentiated EoL-1 cells were exposed from 0.1 to 2.3 mM levocabastine ([…]Levocabastine 0.05% solution eye drops containing cyclodextrins, without benzalkonium chloride), and aliquots of the supernates were collected after 12 and 24 h. The content of cytokines at time zero was estimated by treating the cells with 400 nM calcimycin (A-23187), which is a cytolytic agent that frees all the mediators from the cytoplasmic compartment. In addition, for each experiment we tested the effect of the vehicle, which was added to the wells in a concentration equal to the maximum amount used for drug dilution.
Samples (supernates 12 and 24 h) in triplicate were analyzed using Luminex 200™ (Luminex, Austin, Tex.) and Beadview software v1.0 (Upstate Cell Signaling Solutions, Temecula, Calif.).
All data are presented as mean±SEM for the indicated number of experiments. Statistical significance was determined by Newman-Keuls test after ANOVA using GraphPad Prism (version 3.0; GraphPad Software Inc., San Diego, Calif., USA). P-values<0.05 were considered to be significant.

[1] = 24 h, FN + Levocabastine 2 mM vs FN
[2] = 24 h, Levocabastine 2 mM vs TNF-α

C[C@@H]1CN([C@H]2CC[C@](C#N)(c3ccc(F)cc3)CC2)CC[C@]1(C(=O)O)c1ccccc1 [Levocabastine, levocabastine]
p < 0.001: IL-1ra (PMA), p of decrement (12 h, TNF-α vs Lev 1.0 mM)
Increase: Fractalkine (PMA), p of decrement [1] | G-CSF (PMA), p of decrement [1] | IL-1ra (PMA), p of decrement [1] | IL-1α (PMA), p of decrement [1] | IL-7 (PMA), p of decrement [1] | IL-8 (PMA), p of decrement [1] | MCP-1 (PMA), p of decrement [1] | MIP-1α (PMA), p of decrement [1] | MIP-1β (PMA), p of decrement [1] | RANTES (PMA), p of decrement [1] | IL-1ra (PMA), p of decrement [2] | IL-1α (PMA), p of decrement [2] | IL-8 (PMA), p of decrement [2]
p < 0.05: IP-10 (PMA), p of decrement (12 h, TNF-α vs Lev 1.0 mM) | VEGF (PMA), p of decrement (12 h, TNF-α vs Lev 1.0 mM)
P < 0.001: VEGF (PMA), p of decrement [1]
p < 0.01: IP-10 (PMA), p of decrement (12 h, TNF-α vs Lev 0.5 mM) | VEGF (PMA), p of decrement (12 h, TNF-α vs Lev 2.3 mM)
ns: IL-1α (PMA), p of decrement (12 h, TNF-α vs Lev 0.5 mM) | IL-1β (PMA), p of decrement (12 h, TNF-α vs Lev 0.5 mM) | IL-5 (PMA), p of decrement (12 h, TNF-α vs Lev 0.5 mM) | IL-7 (PMA), p of decrement (12 h, TNF-α vs Lev 0.5 mM) | IL-8 (PMA), p of decrement (12 h, TNF-α vs Lev 0.5 mM) | MCP-1 (PMA), p of decrement (12 h, TNF-α vs Lev 0.5 mM) | MIP-1β (PMA), p of decrement (12 h, TNF-α vs Lev 0.5 mM) | RANTES (PMA), p of decrement (12 h, TNF-α vs Lev 0.5 mM) | VEGF (PMA), p of decrement (12 h, TNF-α vs Lev 0.5 mM) | Fractalkine (PMA), p of decrement (12 h, TNF-α vs Lev 1.0 mM) | IL-1α (PMA), p of decrement (12 h, TNF-α vs Lev 1.0 mM) | IL-1β (PMA), p of decrement (12 h, TNF-α vs Lev 1.0 mM) | IL-5 (PMA), p of decrement (12 h, TNF-α vs Lev 1.0 mM) | IL-7 (PMA), p of decrement (12 h, TNF-α vs Lev 1.0 mM) | IL-8 (PMA), p of decrement (12 h, TNF-α vs Lev 1.0 mM) | MCP-1 (PMA), p of decrement (12 h, TNF-α vs Lev 1.0 mM) | MIP-1β (PMA), p of decrement (12 h, TNF-α vs Lev 1.0 mM) | RANTES (PMA), p of decrement (12 h, TNF-α vs Lev 1.0 mM) | Fractalkine (PMA), p of decrement (12 h, TNF-α vs Lev 2.3 mM) | IL-1ra (PMA), p of decrement (12 h, TNF-α vs Lev 2.3 mM) | IL-1α (PMA), p of decrement (12 h, TNF-α vs Lev 2.3 mM) | IL-1β (PMA), p of decrement (12 h, TNF-α vs Lev 2.3 mM) | IL-5 (PMA), p of decrement (12 h, TNF-α vs Lev 2.3 mM) | IL-7 (PMA), p of decrement (12 h, TNF-α vs Lev 2.3 mM) | IL-8 (PMA), p of decrement (12 h, TNF-α vs Lev 2.3 mM) | IP-10 (PMA), p of decrement (12 h, TNF-α vs Lev 2.3 mM) | MCP-1 (PMA), p of decrement (12 h, TNF-α vs Lev 2.3 mM) | MIP-1β (PMA), p of decrement (12 h, TNF-α vs Lev 2.3 mM) | RANTES (PMA), p of decrement (12 h, TNF-α vs Lev 2.3 mM) | GM-CSF (PMA), p of decrement [1] | IL-1β (PMA), p of decrement [1] | IL-5 (PMA), p of decrement [1] | IL-6 (PMA), p of decrement [1] | IL-10 (PMA), p of decrement [1] | IP-10 (PMA), p of decrement [1] | TGF-α (PMA), p of decrement [1] | Fractalkine (PMA), p of decrement [2] | G-CSF (PMA), p of decrement [2] | GM-CSF (PMA), p of decrement [2] | IL-1β (PMA), p of decrement [2] | IL-5 (PMA), p of decrement [2] | IL-6 (PMA), p of decrement [2] | IL-7 (PMA), p of decrement [2] | IL-10 (PMA), p of decrement [2]
cytokine secretion p < 0.001: MIP-1α (PMA), p of increase (12 h, TNF-α vs Lev 0.1-2.3 mM)
P < 0.01: IL-12p40 (PMA), p of decrement [1]
concentration dependent increase of: MIP-1α (PMA), change of secretion (12 h, TNF-α vs Lev 0.1-2.3 mM)
